These results are taken from US20240270821A1, “GIP/GLP1/GCG TRI-RECEPTOR AGONISTS AND USES THEREOF” (priority 2023, published 2024).

Format in all cases: cell-based
One test deals with human GcgR (Homo sapiens, UniProt P47871). Nature of the test: Functional cAMP activity in the presence of 1% HSA. Conditions: read-out: cAMP Rel EC50, hGcgR.
Test [1] addresses T1, hGIPR (Homo sapiens, UniProt P48546).
T1 sequence (P48546 22-466): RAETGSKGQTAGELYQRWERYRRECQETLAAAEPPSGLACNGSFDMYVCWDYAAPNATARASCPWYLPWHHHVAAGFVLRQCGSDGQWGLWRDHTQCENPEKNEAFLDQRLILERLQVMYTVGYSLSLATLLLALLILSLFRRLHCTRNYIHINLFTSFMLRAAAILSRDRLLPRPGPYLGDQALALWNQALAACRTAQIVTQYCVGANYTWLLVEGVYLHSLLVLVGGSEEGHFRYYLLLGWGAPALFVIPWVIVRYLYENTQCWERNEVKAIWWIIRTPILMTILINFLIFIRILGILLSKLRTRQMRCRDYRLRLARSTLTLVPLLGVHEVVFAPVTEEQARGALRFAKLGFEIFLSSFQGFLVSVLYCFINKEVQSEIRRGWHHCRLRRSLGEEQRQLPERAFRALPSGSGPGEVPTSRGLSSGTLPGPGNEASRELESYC
Briefly: Functional cAMP activity in the presence of 1% HSA. Conditions: read-out: cAMP Rel EC50, hGIPR.

For test [2], the target named is T2, hGLP-1R (Homo sapiens, UniProt P43220). Nature of the test: Functional cAMP activation in the presence of 0.1% casein (no HSA). Conditions: read-out: Relative cAMP EC50, hGLP-1R.
For test [3], the target named is T1, hGIPR. Described as above. The conditions noted are these: read-out: Relative cAMP EC50, hGIPR.
For test [4], the target named is T2, hGLP-1R. Nature of the test: Functional cAMP activity in the presence of 1% HSA. The conditions noted are these: read-out: cAMP Rel EC50, hGLP-1R.
The target in a further test is hGcgR (Homo sapiens, UniProt P47871). Briefly: Functional cAMP activation in the presence of 0.1% casein (no HSA). Conditions: read-out: Relative cAMP EC50, hGcgR.
The mark [5] stands for this setting: in the presence of 0.1% casein (no HSA), geometric mean.
The mark [6] stands for this setting: 0.1% casein, no HSA, geometric mean.

Where two headings read alike, the source gives them in different places. Starred links: 1 amine or outer side, 2 acyl side, 3 side chain; linkers in the order of their positions; H or OH if unused. Non-standard residues stand in square brackets, D forms with d. Residues, ends and D or L forms follow the SMILES beside them. Groups on a side chain read outwards from the residue. *: point of attachment. C18 diacid = O=C(O)CCCCCCCCCCCCCCCCC(=O)*; αMePhe(2-F) = C[C@](N)(Cc1ccccc1F)C(=O)O; γGlu = O=C(O)[C@H](CCC(=O)[*:2])N[*:1]; αMe4Pal = C[C@](N)(Cc1ccncc1)C(=O)O; αMeY = C[C@](N)(Cc1ccc(O)cc1)C(=O)O; 4Pal = N[C@@H](Cc1ccncc1)C(=O)O; αMeL = CC(C)C[C@](C)(N)C(=O)O; αMeS = C[C@](N)(CO)C(=O)O; Orn = NCCC[C@H](N)C(=O)O; AEEA = NCCOCCOCC(=O)O; Aib = CC(C)(N)C(=O)O

What is called EC50 is the concentration at which the effect is half-maximal.
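Throughout, for Relative cAMP EC50, hGIPR: intracellular cAMP rise after 30 min at 37 °C read by HTRF against a standard curve, scaled between buffer alone (0%) and top control ligand concentration (100%), four-parameter fit.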
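Throughout, for Relative cAMP EC50, hGLP-1R: intracellular cAMP rise after 30 min at 37 °C read by HTRF, normalized between buffer only (0%) and maximal control ligand (100%), four-parameter variable-slope fit.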
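Throughout, for Relative cAMP EC50, hGcgR: intracellular cAMP rise after 30 min at 37 °C, read by HTRF against a cAMP standard curve, scaled from buffer only (0%) to maximal control ligand response (100%).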

human GcgR, sequence (P47871 26-477): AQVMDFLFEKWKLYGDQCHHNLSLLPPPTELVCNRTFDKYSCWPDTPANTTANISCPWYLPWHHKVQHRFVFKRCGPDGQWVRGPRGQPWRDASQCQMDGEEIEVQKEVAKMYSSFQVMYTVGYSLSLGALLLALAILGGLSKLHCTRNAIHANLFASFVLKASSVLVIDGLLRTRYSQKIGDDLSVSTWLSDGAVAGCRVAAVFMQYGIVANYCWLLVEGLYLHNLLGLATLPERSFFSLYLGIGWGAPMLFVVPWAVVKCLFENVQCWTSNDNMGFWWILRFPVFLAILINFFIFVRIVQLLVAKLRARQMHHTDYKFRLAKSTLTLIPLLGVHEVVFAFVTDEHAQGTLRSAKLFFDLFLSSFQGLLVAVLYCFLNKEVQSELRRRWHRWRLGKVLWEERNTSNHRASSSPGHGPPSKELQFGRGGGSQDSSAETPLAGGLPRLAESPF
hGcgR, sequence (P47871 26-477): as above
T2 sequence (P43220 24-463): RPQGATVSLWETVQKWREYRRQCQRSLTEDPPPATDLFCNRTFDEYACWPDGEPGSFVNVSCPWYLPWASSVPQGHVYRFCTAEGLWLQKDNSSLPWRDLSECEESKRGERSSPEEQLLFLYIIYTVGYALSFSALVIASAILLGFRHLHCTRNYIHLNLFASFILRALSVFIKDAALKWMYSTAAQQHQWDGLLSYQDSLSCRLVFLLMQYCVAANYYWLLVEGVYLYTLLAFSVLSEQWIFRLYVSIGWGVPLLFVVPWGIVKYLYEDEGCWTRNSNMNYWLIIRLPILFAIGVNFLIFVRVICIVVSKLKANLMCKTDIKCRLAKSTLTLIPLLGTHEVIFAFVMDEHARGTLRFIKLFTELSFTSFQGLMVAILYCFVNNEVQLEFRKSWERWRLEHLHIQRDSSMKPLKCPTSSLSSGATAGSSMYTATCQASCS

Turning to “H-Y[Aib]QGTFTSD[4Pal]SK[αMeL]LDKK([AEEA-γGlu-C18 diacid])AQ[Aib]AFIEYLIE[Aib]GPSSGAPPPSGSEE-NH2 [Example 902]”, the EC50 is 1360 nM at human GcgR; 28.5 nM on hGIPR [1]; 2.58 nM on hGLP-1R [2] (setting [5]); 0.19 nM at hGIPR [3] (setting [5]); 232 nM at hGLP-1R [4]; 15.9 nM on hGcgR (setting [5]).

As to “H-Y[Aib]QGT[αMePhe(2-F)]TSD[4Pal][αMeS]I[αMeL]LD[Orn]K([AEEA-γGlu-C18 diacid])AA[Aib]EFI[dE][αMeY]LLEGGPSSGAPPPSGS-NH2 [Example 672]”, the EC50 at human GcgR came out at 162 nM; at hGIPR [1], 1.53 nM; at hGLP-1R [2], 0.389 nM; at hGIPR [3], 0.014 nM; on hGLP-1R [4], 49.4 nM; at hGcgR, 1.19 nM.

Regarding “H-Y[Aib]QGTFTSD[4Pal]S[Orn][αMeL]LD[Orn]K([γGlu-γGlu-C18 diacid])AQ[αMe4Pal][Orn]FIE[αMeY]LIEGGPSSGAPPPSGSEE-NH2 [Example 974]”, the EC50 at human GcgR was determined as 870 nM; on hGIPR [1], 80.9 nM; at hGLP-1R [2] (setting [5]) it was 1.57 nM; on hGIPR [3] (setting [5]) it was 0.607 nM; at hGLP-1R [4], 283 nM; at hGcgR (setting [5]) it was 3.7 nM.

In the case of “H-Y[Aib]QGT[αMePhe(2-F)]TSD[4Pal]SI[αMeL]LD[Orn]K([AEEA-γGlu-C18 diacid])AQ[αMe4Pal][Orn]FI[dE][αMeY]LIEGGPSSGAPPPESE-NH2 [Example 755]”, the concentration for a half-maximal effect (EC50) at human GcgR is 274 nM; at hGIPR [1], 1.39 nM; on hGLP-1R [2], 0.175 nM; at hGIPR [3], 0.00805 nM; on hGLP-1R [4], 23.9 nM; on hGcgR, 2.31 nM.

Regarding “H-Y[Aib]QGTFTSD[4Pal]S[Orn][αMeL]LD[Orn]K([γGlu-γGlu-C18 diacid])AQ[αMe4Pal]AFIEYLIAGGPSSGEPPPSGTEE-NH2 [Example 985]”, the EC50 amounted to 374 nM on human GcgR; 24 nM at hGIPR [1]; 2.93 nM at hGLP-1R [2] (setting [5]); 0.34 nM on hGIPR [3] (setting [5]); 217 nM at hGLP-1R [4]; 5.41 nM at hGcgR (setting [5]).

Regarding “H-Y[Aib]QGT[αMePhe(2-F)]TSD[4Pal][αMeS]I[αMeL]LD[Orn]K([AEEA-γGlu-C18 diacid])AQ[αMe4Pal]EFI[dE][αMeY]LIEGGPSSGAPPPSGGGEE-NH2 [Example 1214]”, the EC50 at human GcgR was found to be 210 nM; on hGIPR [1], 0.771 nM; at hGLP-1R [2] (setting [6]), 0.55 nM; at hGIPR [3] (setting [6]) it was 0.00851 nM; on hGLP-1R [4], 50 nM; on hGcgR (setting [6]), 1.85 nM.

Turning to “H-Y[Aib]QGTFTSDFS[Orn][αMeL]LDKK([AEEA-γGlu-C18 diacid])AQ[Aib]AFIEYLLE[Aib]GESSGAPPPSGS-NH2 [Example 240]”, the EC50 at human GcgR came out at 521 nM; at hGIPR [1], 10.4 nM; at hGLP-1R [2] (setting [5]), 3.62 nM; on hGIPR [3] (setting [5]), 0.214 nM; at hGLP-1R [4], 396 nM; on hGcgR (setting [5]), 2.02 nM.

As for “H-Y[Aib]QGTFTSD[4Pal]S[Orn][αMeL]LD[Orn]K([γGlu-γGlu-γGlu-C18 diacid])AQ[αMe4Pal]AFIEYLIE[Aib]GPSSGAPPPSGSE-NH2 [Example 943]”, the EC50 at human GcgR is 960 nM; on hGIPR [1] it was 23.1 nM; on hGLP-1R [2] (setting [5]), 3.58 nM; on hGIPR [3] (setting [5]), 0.233 nM; at hGLP-1R [4], 382 nM; on hGcgR (setting [5]) it was 6.58 nM.

Consider `CC[C@H](C)[C@H](NC(=O)[C@H](CCCCN)NC(=O)[C@H](CC(=O)O)NC(=O)[C@H](CC(C)C)NC(=O)[C@](C)(CC(C)C)NC(=O)[C@@H](NC(=O)[C@H](CO)NC(=O)[C@H](Cc1ccc(O)cc1)NC(=O)[C@H](CC(=O)O)NC(=O)[C@H](CO)NC(=O)[C@@H](NC(=O)[C@](C)(Cc1ccccc1F)NC(=O)[C@@H](NC(=O)CNC(=O)[C@H](CCC(N)=O)NC(=O)C(C)(C)NC(=O)[C@@H](N)Cc1ccc(O)cc1)[C@@H](C)O)[C@@H](C)O)[C@@H](C)CC)C(=O)N[C@@H](C)C(=O)N[C@@H](CCC(N)=O)C(=O)NC(C)(C)C(=O)N[C@@H](C)C(=O)N[C@@H](Cc1ccccc1)C(=O)N[C@H](C(=O)N[C@@H](CCCCNC(=O)COCCOCCNC(=O)CC[C@H](NC(=O)CCCCCCCCCCCCCCCCC(=O)O)C(=O)O)C(=O)N[C@@H](Cc1ccc(O)cc1)C(=O)N[C@@H](CC(C)C)C(=O)N[C@@H](CCC(=O)O)C(=O)N[C@@H](CCC(=O)O)C(=O)NCC(=O)NCC(=O)N1CCC[C@H]1C(=O)N[C@@H](CO)C(=O)N[C@@H](CO)C(=O)NCC(=O)N[C@@H](C)C(=O)N1CCC[C@H]1C(=O)N1CCC[C@H]1C(=O)N1CCC[C@H]1C(=O)N[C@@H](CO)C(N)=O)[C@@H](C)CC` [Example 455] (H-Y[Aib]QGT[αMePhe(2-F)]TSDYSI[αMeL]LDKIAQ[Aib]AFIK([AEEA-γGlu-C18 diacid])YLEEGGPSSGAPPPS-NH2), for which the EC50 is 1200 nM on human GcgR; 5.2 nM on hGIPR [1]; 0.49 nM on hGLP-1R [2]; 0.0182 nM on hGIPR [3]; 105 nM at hGLP-1R [4]; 4.36 nM at hGcgR.

Take “H-Y[Aib]QGT[αMePhe(2-F)]TSD[4Pal][αMeS]I[αMeL]LD[Orn]K([AEEA-γGlu-C18 diacid])AQ[αMe4Pal]EFI[dE][αMeY]LIEGGPPS[Aib][Orn]PPP[Orn]GS-NH2 [Example 1189]”: the EC50 stood at 248 nM on human GcgR; 0.584 nM on hGIPR [1]; 0.292 nM on hGLP-1R [2] (setting [5]); 0.00597 nM at hGIPR [3] (setting [5]); 45.4 nM on hGLP-1R [4]; 1.59 nM on hGcgR (setting [5]).

Take “H-Y[Aib]QGT[αMePhe(2-F)]TSD[4Pal][αMeS]I[αMeL]LD[Orn]K([γGlu-γGlu-C18 diacid])AQ[Aib][Orn]FI[dE][αMeY]LSEGGPSSGEPPPSGGEE-NH2 [Example 568]”: the EC50 on human GcgR is 477 nM; on hGIPR [1], 13.2 nM; at hGLP-1R [2], 0.986 nM; on hGIPR [3], 0.125 nM; on hGLP-1R [4] it was 116 nM; at hGcgR, 6.13 nM.

Turning to “H-Y[Aib]QGT[αMePhe(2-F)]TSD[4Pal]SILLDKK([γGlu-γGlu-C18 diacid])AQ[Aib]AFIEYLEEGGPSSGAPPPSGSEE-NH2 [Example 610]”, the EC50 on human GcgR was found to be 536 nM; on hGIPR [1], 7.02 nM; at hGLP-1R [2], 1.66 nM; at hGIPR [3], 0.133 nM; on hGLP-1R [4], 130 nM; at hGcgR, 5.75 nM.

Take “H-Y[Aib]QGTFTSD[4Pal]SK[αMeL]LDKK([AEEA-γGlu-C18 diacid])AQ[Aib]AFIEYLIA[Aib]GESSGEPPPSGS-NH2 [Example 287]”: the EC50 at human GcgR worked out at 291 nM; at hGIPR [1] it was 9.94 nM; at hGLP-1R [2] (setting [5]), 4.25 nM; on hGIPR [3] (setting [5]), 0.0633 nM; at hGLP-1R [4], 562 nM; at hGcgR (setting [5]), 2.53 nM.

With “H-Y[Aib]QGTFTSDFS[Orn][αMeL]LDKK([γGlu-AEEA-γGlu-C18 diacid])AQ[Aib]AFIEYLLE[Aib]GPSSGAPPPSG[4Pal]-NH2 [Example 277]”, the 50% effective concentration (EC50) came to 1690 nM at human GcgR; 13.3 nM on hGIPR [1]; 5.56 nM on hGLP-1R [2] (setting [5]); 0.0672 nM at hGIPR [3] (setting [5]); 639 nM on hGLP-1R [4]; 10.6 nM at hGcgR (setting [5]).

For “H-Y[Aib]QGT[αMePhe(2-F)]TSD[4Pal][αMeS]I[αMeL]LD[Orn]K([AEEA-γGlu-C18 diacid])AQ[αMe4Pal]EFI[dE][αMeY]LIEGGPSSGEPPPGGE-NH2 [Example 1145]”, the EC50 at human GcgR amounted to 148 nM; on hGIPR [1], 0.848 nM; on hGLP-1R [2] (setting [5]), 0.313 nM; on hGIPR [3] (setting [5]) it was 0.00689 nM; on hGLP-1R [4], 39.1 nM; at hGcgR (setting [5]), 1.07 nM.

With “H-Y[Aib]Q[dA]T[αMePhe(2-F)]TSD[4Pal]SI[αMeL]LD[Orn]K([AEEA-γGlu-C18 diacid])AQ[αMe4Pal]EFI[dE][αMeY]LIEGGPSSGAPPPSGS-NH2 [Example 1206]”, the EC50 on human GcgR came out at 251 nM; at hGIPR [1], 7.04 nM; at hGLP-1R [2] (setting [6]) it was 0.352 nM; at hGIPR [3] (setting [6]), 0.0671 nM; at hGLP-1R [4], 44.1 nM; on hGcgR (setting [6]) it was 1.78 nM.

As for “H-Y[Aib]QGT[αMePhe(2-F)]TSD[4Pal][αMeS]I[αMeL]LD[Orn]K([AEEA-γGlu-C18 diacid])AQ[Aib]NFIEYLIEGGPSSGEPPPEGE-NH2 [Example 483]”, the EC50 at human GcgR was 231 nM; on hGIPR [1], 1.17 nM; on hGLP-1R [2], 0.188 nM; on hGIPR [3], 0.0133 nM; at hGLP-1R [4], 18.2 nM; on hGcgR, 1.77 nM.
